“Also recorded” adds a separate entry of the source.
Key:
Format in all cases: cell-based, mouse
[1] = test system: ESC-derived hair cell-like cell; experiment: Mechanically induced currents of ESC-derived hair cell-like cells (patch clamp); details: local application of 1 mM DHSM to hair bundles, then mechanical stimulation
Description: (§1) nGFP-expressing hair cell-like cells were identified by fluorescence microscopy, and nearby hair bundle-like protrusions were imaged with a […] objective with brightfield optics. Recordings were conducted with an Axoclamp 200a (Axon Instruments) amplifier, interfaced with a DIGIDATA® 1332 board (Axon), and jClamp Software (Scisoft). Mechanical stimulation was done with a stiff glass probe attached to a piezo stack.
(§2) More specifically, cultured cells were placed onto the stage of an OLYMPUS® BX 51 fixed stage upright microscope and imaged using a 100× dipping objective using brightfield optics. Images were collected using a C2400 NARISHIGE® analog camera coupled via a framegrabber to a PC computer using Image J software. Soda glass electrodes, coated with ski wax (MR. ZOG'S SEX WAX®) to limit stray capacitance, of resistances 3-5MΩ, were used to record from both ES and iPS cells. The culture medium was replaced during electrophysiological recordings with a solution containing (in mM) 140 NaCl, 5 KCl, 1 MgCl2, 2.5 CaCl, 10 HEPES, 6 glucose, 2 pyruvate, 2 ascorbate, 2 creatine. […] Data was analyzed with ORIGIN® software (Microcal). […]
(§3) Adaptation is a complex process in which hair bundle dynamic range is enhanced and sensitivity maintained over large displacements (Eatock, 2000). […] The fast time constant measured was 0.5±0.4 ms (n=5) and the slow was 11±5 ms (n=5). […]

[2] = test system: iPSC-derived hair cell-like cell; experiment: Mechanically induced currents of iPSC-derived hair cell-like cells (patch clamp); details: local application of 1 mM DHSM to hair bundles, then mechanical stimulation
Description: as §1, §2, §3

ESC-derived cultures = experiment: Otic induction of ESC-derived embryoid body cultures (Pax2 immunostaining); details: ESC derivatives; not treated with any of the three initial factors, but treated with bFGF
Description: (§4) Embryoid bodies were transferred into fibronectin-coated 4-well dishes (Greiner) at 30 embryoid bodies per well and cultured for three days in DMEM/F12 (Invitrogen, mixed 1:1) supplemented with N2 and B27 (Invitrogen), bFGF (R&D Systems, 25 ng/ml), heparin sulfate (Sigma, 50 ng/ml), and ampicillin ([…]). FGF3 (recombinant human FGF-3, R&D Systems) and FGF10 (recombinant human FGF-10, R&D Systems) were used at 25 ng/ml in parallel experiments. The FGF receptor antagonist SU5402 (a gift from Pfizer R&D) was used at […]. After FGF-treatment, the cells were detached using 0.05% trypsin/EDTA (Sigma) in PBS, mildly triturated, and passed 1:10 into individual wells of 4-well dishes coated with either fibronectin, gelatin, MEFs, or mitotically inactivated embryonic (E18) chicken utricle stromal cells. Utricle stromal cells were prepared from 20 utricles whose sensory epithelia were removed after 40 min treatment with 0.5 mg/ml thermolysin (Sigma) in DMEM/F12 at 37 C. After addition of 5% serum, the sensory epithelia were removed and used in unrelated experiments. […]
(§5) For immunocytochemistry, the cells were fixed with 4% paraformaldehyde in PBS for 15 min at room temperature. […] Images were acquired with a Zeiss Axioimager/LSM 5 Exciter fluorescence and confocal microscope. […]

iPSC-derived cultures = experiment: Otic induction of iPSC-derived embryoid body cultures (Pax2 immunostaining); details: iPSC derivatives; not treated with any of the three initial factors, but treated with bFGF
Description: as §4, §5

| Compound | mechanically induced (evoked) currents [1] | mechanically induced (evoked) currents [2] | Pax2-expressing cells (ESC-derived cultures) [%] | Pax2-expressing cells (iPSC-derived cultures) [%] |
| --- | --- | --- | --- | --- |
| CN[C@@H]1[C@H](O[C@H]2[C@H](O[C@H]3[C@H](O)[C@@H](O)[C@H](NC(=N)N)[C@@H](O)[C@@H]3NC(=N)N)O[C@@H](C)[C@]2(O)CO)O[C@@H](CO)[C@H](O)[C@H]1O [DHSM, dihydrostreptomycin] | antagonized reversibly; also recorded: reversibly blocked | antagonized reversibly; also recorded: reversibly blocked |  |  |
| bFGF: fibroblast growth factor FGF2 (bFGF), general otic inducer |  |  | 0.05±0.04 | 0.1±0.09 |
